From patent EP0863145A2, “Sunscreen compositions” (F. HOFFMANN-LA ROCHE AG, priority 1997, dated 1998)

Test: Solubility in cosmetic solvents (Cétiol LC, Crodamol DA)
Assay type: physicochemical
Conditions: solvent Cétinol LC; chromatographed product
From the text: Bezüglich der Lipophilität sind die erfindungsgemässen Verbindungen I den eingangs genannten substituierten Triazinen überlegen, indem alle Verbindungen I das im vorliegenden Fall nötige Kriterium, nämlich eine hohe Löslichkeit in kosmetischen Lösungsmitteln wie z.B. Deltyl extra (Isopropylmyristat), Arlanol E (PPG 15-Stearylether), Cétiol LC (Cocoylcapylat/-caprat) oder Crodamol DA (Diisopropyladipat) erfüllen, wie die nachfolgend beispielhaft aufgeführten Verbindungen der Formel I und deren Löslichkeiten in Cetiol LC und/oder in Crodamol DA zeigen (Tabelle II).

Compound: C[Si](C)(C)O[Si](C)(C)CCCCCOc1ccc(-c2nc(-c3ccc(OCCCCC[Si](C)(C)O[Si](C)(C)C)cc3O)nc(-c3ccc(OCCCCC[Si](C)(C)O[Si](C)(C)C)cc3O)n2)c(O)c1 [Beispiel 9-1]
- Löslichkeit in Cétinol LC: > 35%

Compound: C[Si](C)(C)O[Si](C)(C)CCCCOc1ccc(-c2nc(-c3ccc(OCCCC[Si](C)(C)O[Si](C)(C)C)cc3O)nc(-c3ccc(OCCCC[Si](C)(C)O[Si](C)(C)C)cc3O)n2)c(O)c1 [Beispiel 10, 5,5',5''-Tris-[4-(1,1,1,3,3-pentamethyl-disiloxan-oxy)-butyl-1-oxy]-2,2',2''-(1.3.5)-triazin-2,4,6-triyl-tris-phenol]
- Löslichkeit in Cétinol LC: 8%
